Assay results published in patent US20240327423A1, “A SERIES OF PYRROLE DERIVATIVES AND THEIR PREPARATION METHOD AND THERAPEUTIC USE” (SHENZHEN SUNGENING BIO-MEDICAL CO., LTD, priority 2020, published 2024).
≈ marks a conversion by molar mass, not a printed value. Where two headings read alike, the source gives them in different places.

Tests used:
[1] = tested on: Aspergillus fumigatus (ATCC-204305); experiment: Measurement of minimum inhibitory concentration (MIC), ATCC 204305; assay type: cell-based; details: Aspergillus fumigatus ATCC 204305, 35° C., 48 hours; for MIC: ATCC204305
Protocol: New streaks are made with glycerol stock solution of the strains of Aspergillus [NT] MYA-4609/AF 293/CBS 101355) on Sabouraud's dextrose agar (SDA), incubate at 35° C. and a humidity of 40-70% for 72 hours. Other strains are processed as the same as AF293. RPMI1640: one packet of RPMI1640 powder is dissolved in 1 L purified water and mixed well, add 0.165M MOPS, adjust the pH to 7.0, sterilize by filtration with 0.22 um membrane, and store at 4° C. for no more than 3 months. Physiological saline: weigh 9 g of sodium chloride powder and dissolve in 1 L of purified water, and mixed well. […] Dissolve the test compound and stock solution of one control compound with DMSO and obtain solutions at a concentration of 12.8 mg/mL The maximum concentration of each compound is 0.8 mg/mL (e.g., 150 μL of dimethyl sulfoxide+10 uL of 12.8 mg/mL compound/control). […] Repeat the above steps up to column 11 to give 2× serial dilutions. 2 μL of the above 2× serial dilutions are injected into each hole of the corresponding test plate using a multichannel pipette. Drop 5 ml of saline on the Aspergillus fumigatus SDA plate. The spores were carefully wiped off from the surface of the plate with an L-shaped coating rod. Then the suspension is transferred into a sterile tube. After shaking, let the tube stand for 5 to 10 minutes. Count the number of spores in the upper suspension with a hemocytometer and check the purity. Adjust the inoculum concentration to 0.2-2.5×10^4 spores/mL. Inject 198 μL of diluted inoculum into each holes of the corresponding test plate using a multichannel pipette. Incubate at 35° C. for 48 hours. […] To facilitate scoring of the presence or absence of growth on the wall, a magnifying glass is used. The tested 96-well microplates were photographed and the optical density at 530 nm is read with an enzyme marker (Tecan Spark).

[2] = tested on: Aspergillus fumigatus (ATCC MYA-4609/AF293/CBS 101355); experiment: Measurement of minimum inhibitory concentration (MIC), AF293; assay type: cell-based; details: CBS101355; Aspergillus fumigatus AF293, 35° C., 48 hours, RPMI1640; read-out: AF293: MIC
Protocol: (§1) New streaks are made with glycerol stock solution of the strains of Aspergillus fumigatus (ATCC MYA-4609/AF 293/CBS 101355) on Sabouraud's dextrose agar (SDA), incubate at 35° C. and a humidity of 40-70% for 72 hours. Other strains are processed as the same as AF293.
(§2) RPMI1640: one packet of RPMI1640 powder is dissolved in 1 L purified water and mixed well, add 0.165M MOPS, adjust the pH to 7.0, sterilize by filtration with 0.22 um membrane, and store at 4° C. for no more than 3 months.
(§3) Physiological saline: weigh 9 g of sodium chloride powder and dissolve in 1 L of purified water, and mixed well. Sterilize at 121° C. for 30 min, store at room temperature (RT) for no more than 1 week.
(§4) Dissolve the test compound and stock solution of one control compound with DMSO and obtain solutions at a concentration of 12.8 mg/mL
(§5) The maximum concentration of each compound is 0.8 mg/mL (e.g., 150 μL of dimethyl sulfoxide+10 uL of 12.8 mg/mL compound/control). Column 1 is filled with 40 μL of compound and columns 2 to 11 with 20 μL of dimethyl sulfoxide. Transfer 20 μL of compound from column 1 to column 2 to dilute the concentration. Repeat the above steps up to column 11 to give 2× serial dilutions.
(§6) 2 μL of the above 2× serial dilutions are injected into each hole of the corresponding test plate using a multichannel pipette.
(§7) Drop 5 ml of saline on the Aspergillus fumigatus SDA plate. The spores were carefully wiped off from the surface of the plate with an L-shaped coating rod. Then the suspension is transferred into a sterile tube. After shaking, let the tube stand for 5 to 10 minutes. Count the number of spores in the upper suspension with a hemocytometer and check the purity. Adjust the inoculum concentration to 0.2-2.5×10^4 spores/mL.
(§8) Inject 198 μL of diluted inoculum into each holes of the corresponding test plate using a multichannel pipette.
(§9) Incubate at 35° C. for 48 hours.
(§10) To facilitate scoring of the presence or absence of growth on the wall, a magnifying glass is used. The tested 96-well microplates were photographed and the optical density at 530 nm is read with an enzyme marker (Tecan Spark).

[3] = tested on: Aspergillus flavus (ATCC 204304); experiment: Measurement of minimum inhibitory concentration (MIC), ATCC 204304; assay type: cell-based; details: ATCC204304; Aspergillus flavus ATCC 204304, 35° C., 48 hours
Protocol: as §1, §2, §3, §4, §5, §6, §7, §8, §9, §10

[4] = tested on: Aspergillus flavus (ATCC MYA-1004); experiment: Measurement of minimum inhibitory concentration (MIC), ATCC MYA-1004; assay type: cell-based; details: Aspergillus flavus ATCC MYA-1004, 35° C., 48 hours
Protocol: as §1, §2, §3, §4, §5, §6, §7, §8, §9, §10

[5] = Liver microsomal stability test, human; assay type: in vitro ADME; details: Human liver microsomes
Protocol: (§11) • 1: Add 10 μL of working solutions of test product or reference product and 80 μL of microsomal working solution (liver microsomal protein concentration of 0.5 mg/mL) to wells of TO, T5, T10, T20, T30, T60, and NCF60, and only microsomal working solution is added to the Blank60 wells. Then the samples of Blank60, T10, T20, T30 and T60, except for TO and NCF60, are placed in a water bath set at 37° C. and incubate for approximately 10 mins; • 2: Add 300 μL of termination solution (acetonitrile solution containing 200 ng/mL tolbutamide and 200 ng/mL labetalol) to Sample TO, followed by 10 ul of NADPH regeneration system working solution; • 3: After incubation of Blank60, T5, T10, T20, T30 and T60 on incubation plates, add 10 μL of NADPH regeneration system working solution to each sample well to start the reaction, and 10 uL of 100 mM potassium phosphate buffer is add to the NCF60 sample wells; • 4: After incubation for appropriate times (e.g., 5, 10, 20, 30 and 60 mins), 300 μL of termination solution is add to each sample well of test product and reference product on Blank60, T5, T10, T20, T30, T60 and NCF60 plates, respectively, to terminate the reaction. • 5: All sample plates are shaken well and centrifuged at 4000 rpm for 20 min, take 100 μL of the supernatant of the test product or reference product, dilute in 300 μL of pure water for LC-MS/MS analysis, respectively. • 6: Data analysis, T½ and CLint(mic) (μL/min/mg) values are calculated based on the first-order elimination kinetics, and the equations of first-order elimination kinetics are: […]

[6] = Liver microsomal stability test, mouse; assay type: in vitro ADME; details: Mouse liver microsomes
Protocol: as §11

[7] = Pharmacokinetic test in SD rats, single oral administration; assay type: in vivo; details: single oral administration 10 mg/kg, test compound mixed with F901318, plasma; for half-life: read-out: T½ (converted)
Protocol: Pharmacokinetic study is performed on SD rats receiving single oral administration of each test compound mixed with F901318 (10 mg/kg, 3 rats per group). Test compounds and F901318 are dissolved with […]+10% solutol+85% saline, vortexed for 1-2 mins and ultra-sonicated for 5-10 mins to form a colorless clear drug solution. The animals are fasted overnight before oral administration, and resumed feeding 4 hours after administration. After oral administration, pharmacokinetic samples are collected from orbital blood of SD rats at 0.083 h, 0.25 h, 0.5 h, 1 h, 2 h, 4 h, 6 h, 8 h, and 24 h, and three whole blood samples are collected at each time point in a volume of 0.2-0.3 mL. Blood samples are placed on ice immediately after collected, and the plasma is separated by centrifugation within 15 min (centrifugation conditions: 8000 rpm, 1 min, and at room temperature).
The collected plasma is stored at −20° C. prior to analysis. Transfer 20 μL of plasma sample into an 0.5 mL EP tube, add 200 μL of working internal standard solution (blank group is without internal standard, using the same volume of solvent instead), vortex and mix for 3 min centrifuge at 13500 rpm for 10 min, take 100 μL of supernatant and analyze with LC-MS/MS.

[8] = tested on: Aspergillus fumigatus ATCCMYA-4690 (AF293); experiment: Survival rate experiment II of mouse bloodstream infection model with Aspergillus fumigatus; assay type: in vivo; details: immunosuppressed male CD-1 mouse
Protocol: Test Case 6: Survival Rate Experiment II of Mouse Bloodstream Infection Model with Aspergillus fumigatus • Animal for experiment: male CD-1 mouse, 6-8 weeks old, 10 animals per group. • Induction of immunosuppression: the day of infection is defined as day 0, and mouses are injected intraperitoneally with corresponding doses of cyclophosphamide on day −4 (150 mg/kg), day −1 (100 mg/kg), and day 2 (100 mg/kg), respectively. • Microbial pathogen: Aspergillus fumigatus ATCCMYA-4690 (AF293). • Collection conditions of inoculum: culture on SDA culture plates, incubate at 25° C. for at least 7 days, collect with PBS+0.1% Tween 20, and count microscopically; • Inoculation level, route and volume: 3.90E+05 CFU/mouse, tail vein injection, injection volume of 100 μL/mouse; • Treatment: Treatment is started 24 hours after infection, and test compounds are dissolved in PEG400 (0.3 mg/mL), […] The administrated mouses are observed for 8 hours.

[9] = 0.5 mg/mL protein, 37° C., NADPH
[10] = SD, rat, plasma, po, 10 mg/kg, read-out: AUC
[11] = SD, rat, plasma, po, 10 mg/kg, read-out: Cmax
[12] = SD, rat, plasma, po, 10 mg/kg, read-out: Tmax

| Structure (SMILES) | ATCC 204305: MIC [1] [µg/mL] | MIC [2] [µg/mL] | MIC [1] [µg/mL] | CLint scaled [5, 9] [mL/min/kg] | half-life [5, 9] [min] | Remaining, (T = 60 min) [5] [%] | CLint scaled [6, 9] [mL/min/kg] | half-life [6, 9] [min] | Remaining, (T = 60 min) [6] [%] | AUC [7, 10] [ng·h/mL] | Cmax [7, 11] [ng/mL] | Tmax [7, 12] [min] | half-life ([7]; SD, rat, plasma, po, 10 mg/kg) [min] | other results |
| --- | --- | --- | --- | --- | --- | --- | --- | --- | --- | --- | --- | --- | --- | --- |
| Cc1cc(-c2ccccc2F)c(C(=O)C(=O)Nc2ccc3c(c2)COCC2CN(c4ncc(F)cn4)CCN32)n1C (stereo not drawn) [Example 39, 2-(3-(2-fluorophenyl)-1,5-dimethyl-1H-pyrrol-2-yl)-N-(3-(5-fluoropyrimidin-2-yl)-1,2,3,4,4a,5-hexahydro-7H-benzo[e]pyrazine[2,1-c] [1,4]oxazolin-9-yl)-2-oxoacetamide] | 0.03 |  |  |  |  |  |  |  |  |  |  |  |  |  |
| Cc1cc(-c2ccccc2)c(C(=O)C(=O)Nc2ccc3c(c2)CCC2CN(c4ncc(F)cn4)CCN32)n1C (stereo not drawn) [Example 32, 2-(1,5-dimethyl-3-phenyl-1H-pyrrol-2-yl)-N-(3-(5-fluoropyrimidin-2-yl)-2,3,4,4a,5,6-hexahydro-1H-pyrazino [1,2-a]quinolin-8-yl)-2-oxoacetamide] |  | 0.008 (≈ 0.0152 µM) | 0.03 (≈ 0.0572 µM) | 56.4 | 22.1 | 26.6 | 89.8 | 27.8 | 26.2 |  |  |  |  | MIC [3]: 0.016 µg/mL (≈ 0.0305 µM); MIC [4]: 0.016 µg/mL (≈ 0.0305 µM) |
| Cc1cc(-c2ccccc2F)c(C(=O)C(=O)Nc2ccc3c(c2)OC[C@H]2CN(c4ncc(F)cn4)CCN32)n1C [Example 35, (R)-2-(3-(2-fluorophenyl)-1,5-dimethyl-1H-pyrrol-2-yl)-N-(3-(5-fluoropyrimidin-2-yl)-1,2,3,4,4a, 5-hexahydrobenzo [b]pyrazino[1,2-d] [1,4]oxazin-8-yl)-2-oxoacetamide] |  | 0.008 (≈ 0.0147 µM) | 0.016 (≈ 0.0294 µM) |  |  |  |  |  |  | 12800 | 1520 | 50 | 297 |  |
| Cc1cc(-c2ccccc2)c(C(=O)C(=O)Nc2ccc3c(c2)CC2CN(c4ncc(F)cn4)CCN32)n1C (stereo not drawn) [Example 1, 2-(1,5-dimethyl-3-phenyl-1H-pyrrol-2-yl)-N-(2-(5-fluoropyrimidin-2-yl)-1,2,3,4,10,10a-hexahydropyrazino[1,2-a]indol-8-yl)-2-oxoacetamide] |  | 0.03 (≈ 0.0588 µM) |  | 32.6 | 38.3 | 35.7 | 65.2 | 38.3 | 34.4 | 48300 | 3860 | 140 | 389 |  |
| Cc1cc(-c2ccccc2F)c(C(=O)C(=O)Nc2ccc3c(c2)C[C@H]2CN(c4ncc(F)cn4)CCN32)n1C [Example 38, (S)-2-(3-(2-fluorophenyl)-1,5-dimethyl-1H-pyrrol-2-yl)-N-(2-(5-fluoropyrimidin-2-yl)-1,2,3,4,10,10a-hexahydropyrazino[1,2-a]indol-8-yl)-2-oxyacetamide] | 0.008 |  |  |  |  | 25.3 |  |  | 24.5 |  |  |  |  | AUC [7]: 41566.714 ng·h/mL; Cmax [7]: 3053.085 ng/mL; Tmax [7]: 60 min; T½ [7]: 672.12 min; CLint [5, 9]: 40.7 mL/min/kg; T1/2 [5, 9]: 30.7 min; CLint [6, 9]: 85.1 mL/min/kg; T1/2 [6, 9]: 29.3 min; day 7 survival rate ([8]; 3 mg/kg (bid) orally for 6 days, started 24 hours after infection): 50%; survival time of mouses ([8]; oral, bid): prolong the survival time |
| Cc1cc(-c2ccccc2F)c(C(=O)C(=O)Nc2cnc3c(c2)OCC2CN(c4ncc(F)cn4)CCN32)n1C (stereo not drawn) [Example 40] | 0.06 |  |  |  |  |  |  |  |  |  |  |  |  |  |
